How the values were obtained:
Assay in all cases: relative viability (nuclei count vs DMSO), 5 days (fraction); higher = more cells survive
[1] = compound: C1/C(=C\C2=CC=CS2)/C(=O)/C(=C/C3=CC=CS3)/C1 + N=C(N)NC(=N)NCCc1ccccc1 [Phenformin] (partner 250 µM)
Procedure, shortened: (§1)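 Lung cancer cell lines, seeded in 1536-well plates, were treated the following day by pin tool with a single drug or with five library-drug doses (not always all listed) in √10 steps on top of a fixed anchor-drug dose. Cells were fixed and nuclei stained in one step after 5 days, and nuclei were counted. Relative viability is the nuclei count for treated wells divided by that for vehicle wells, reported as medians of duplicate plates.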

TPCA-1 + Trametinib = compound: C1=CC(=CC=C1C2=CC(=C(S2)NC(=O)N)C(=O)N)F [TPCA-1] + CC(=O)Nc1cccc(-n2c(=O)n(C3CC3)c(=O)c3c(Nc4ccc(I)cc4F)n(C)c(=O)c(C)c32)c1 [Trametinib] (partner 0.02 µM)
Procedure, shortened: as §1

[2] = compound: C1/C(=C\C2=CC=CS2)/C(=O)/C(=C/C3=CC=CS3)/C1 + CC1(C)CCC(c2ccc(Cl)cc2)=C(CN2CCN(c3ccc(C(=O)NS(=O)(=O)c4ccc(N[C@H](CCN5CCOCC5)CSc5ccccc5)c(S(=O)(=O)C(F)(F)F)c4)cc3)CC2)C1 [Navitoclax] (partner 0.5 µM)
Procedure, shortened: as §1

TPCA-1 + Luminespib = compound: C1=CC(=CC=C1C2=CC(=C(S2)NC(=O)N)C(=O)N)F [TPCA-1] + CCNC(=O)c1noc(-c2cc(C(C)C)c(O)cc2O)c1-c1ccc(CN2CCOCC2)cc1 [Luminespib] (partner 0.01 µM)
Procedure, shortened: as §1

NCI-H460 gave a relative viability ([1]; first compound 0.2 µM) of 0.543, a relative viability ([1]; first compound 0.6325 µM) of 0.568 and a relative viability ([1]; first compound 2 µM) of 0.519. It also gave a relative viability ([1]; first compound 6.325 µM) of 0.344, a relative viability ([1]; first compound 20 µM) of 0.522 and a relative viability (TPCA-1 + Trametinib; first compound 0.04 µM) of 0.172. It also gave a relative viability (TPCA-1 + Trametinib; first compound 0.1265 µM) of 0.161, a relative viability (TPCA-1 + Trametinib; first compound 1.265 µM) of 0.145 and a relative viability (TPCA-1 + Trametinib; first compound 4 µM) of 0.154. For the same cell line, the relative viability ([2]; first compound 0.2 µM) was 1.26, the relative viability ([2]; first compound 0.6325 µM) was 1.34 and the relative viability ([2]; first compound 2 µM) was 1.12. For the same cell line, the relative viability ([2]; first compound 20 µM) was 1.14, the relative viability (TPCA-1 + Luminespib; first compound 0.04 µM) was 0.0339 and the relative viability (TPCA-1 + Luminespib; first compound 0.1265 µM) was 0.0348. It also gave a relative viability (TPCA-1 + Luminespib; first compound 0.4 µM) of 0.0261, a relative viability (TPCA-1 + Luminespib; first compound 1.265 µM) of 0.0343 and a relative viability (TPCA-1 + Luminespib; first compound 4 µM) of 0.0263.
Work on LCLC-97TM1 yielded a relative viability ([1]; first compound 0.2 µM) of 0.389, a relative viability ([1]; first compound 0.6325 µM) of 0.473 and a relative viability ([1]; first compound 2 µM) of 0.437. The relative viability ([1]; first compound 6.325 µM) was 0.476, the relative viability ([1]; first compound 20 µM) was 0.482 and the relative viability (TPCA-1 + Trametinib; first compound 0.04 µM) was 0.208. For the same cell line, the relative viability (TPCA-1 + Trametinib; first compound 0.1265 µM) was 0.152, the relative viability (TPCA-1 + Trametinib; first compound 0.4 µM) was 0.163 and the relative viability (TPCA-1 + Trametinib; first compound 1.265 µM) was 0.205. It also gave a relative viability (TPCA-1 + Trametinib; first compound 4 µM) of 0.204, a relative viability ([2]; first compound 0.2 µM) of 0.345 and a relative viability ([2]; first compound 0.6325 µM) of 0.337. For the same cell line, the relative viability ([2]; first compound 2 µM) was 0.367, the relative viability ([2]; first compound 6.325 µM) was 0.297 and the relative viability ([2]; first compound 20 µM) was 0.261. For the same cell line, the relative viability (TPCA-1 + Luminespib; first compound 0.04 µM) was 0.877, the relative viability (TPCA-1 + Luminespib; first compound 0.1265 µM) was 0.614 and the relative viability (TPCA-1 + Luminespib; first compound 0.4 µM) was 0.71. The relative viability (TPCA-1 + Luminespib; first compound 1.265 µM) was 0.541 and the relative viability (TPCA-1 + Luminespib; first compound 4 µM) was 0.482.
With COR-L23 the relative viability ([1]; first compound 0.2 µM) was 0.458, the relative viability ([1]; first compound 0.6325 µM) was 0.465 and the relative viability ([1]; first compound 2 µM) was 0.376. It also gave a relative viability ([1]; first compound 6.325 µM) of 0.433, a relative viability ([1]; first compound 20 µM) of 0.476 and a relative viability (TPCA-1 + Trametinib; first compound 0.04 µM) of 0.715. The relative viability (TPCA-1 + Trametinib; first compound 0.1265 µM) was 0.512, the relative viability (TPCA-1 + Trametinib; first compound 0.4 µM) was 0.713 and the relative viability (TPCA-1 + Trametinib; first compound 1.265 µM) was 0.547. The relative viability (TPCA-1 + Trametinib; first compound 4 µM) was 0.33, the relative viability ([2]; first compound 0.2 µM) was 1.06 and the relative viability ([2]; first compound 0.6325 µM) was 1.09. The relative viability ([2]; first compound 2 µM) was 1.02, the relative viability ([2]; first compound 6.325 µM) was 0.864 and the relative viability ([2]; first compound 20 µM) was 0.967. It also gave a relative viability (TPCA-1 + Luminespib; first compound 0.04 µM) of 0.682, a relative viability (TPCA-1 + Luminespib; first compound 0.1265 µM) of 0.602 and a relative viability (TPCA-1 + Luminespib; first compound 0.4 µM) of 0.762. For the same cell line, the relative viability (TPCA-1 + Luminespib; first compound 1.265 µM) was 0.625 and the relative viability (TPCA-1 + Luminespib; first compound 4 µM) was 0.381.
Work on NCI-H1355 yielded a relative viability ([1]; first compound 0.2 µM) of 0.512, a relative viability ([1]; first compound 0.6325 µM) of 0.492 and a relative viability ([1]; first compound 2 µM) of 0.465. For the same cell line, the relative viability ([1]; first compound 6.325 µM) was 0.397, the relative viability ([1]; first compound 20 µM) was 0.434 and the relative viability (TPCA-1 + Trametinib; first compound 0.04 µM) was 0.494. The relative viability (TPCA-1 + Trametinib; first compound 0.1265 µM) was 0.384, the relative viability (TPCA-1 + Trametinib; first compound 0.4 µM) was 0.406 and the relative viability (TPCA-1 + Trametinib; first compound 1.265 µM) was 0.381. For the same cell line, the relative viability (TPCA-1 + Trametinib; first compound 4 µM) was 0.41, the relative viability ([2]; first compound 0.2 µM) was 0.958 and the relative viability ([2]; first compound 0.6325 µM) was 0.812. It also gave a relative viability ([2]; first compound 2 µM) of 0.904, a relative viability ([2]; first compound 6.325 µM) of 0.853 and a relative viability ([2]; first compound 20 µM) of 0.933. For the same cell line, the relative viability (TPCA-1 + Luminespib; first compound 0.04 µM) was 0.788, the relative viability (TPCA-1 + Luminespib; first compound 0.1265 µM) was 0.747 and the relative viability (TPCA-1 + Luminespib; first compound 0.4 µM) was 0.841. For the same cell line, the relative viability (TPCA-1 + Luminespib; first compound 1.265 µM) was 0.715 and the relative viability (TPCA-1 + Luminespib; first compound 4 µM) was 0.465.
For NCI-H1666, the relative viability ([1]; first compound 0.2 µM) was 0.55, the relative viability ([1]; first compound 0.6325 µM) was 0.596 and the relative viability ([1]; first compound 2 µM) was 0.589. The relative viability ([1]; first compound 6.325 µM) was 0.522, the relative viability ([1]; first compound 20 µM) was 0.584 and the relative viability (TPCA-1 + Trametinib; first compound 0.04 µM) was 0.838. The relative viability (TPCA-1 + Trametinib; first compound 0.1265 µM) was 0.7, the relative viability (TPCA-1 + Trametinib; first compound 0.4 µM) was 0.879 and the relative viability (TPCA-1 + Trametinib; first compound 1.265 µM) was 0.804. The relative viability (TPCA-1 + Trametinib; first compound 4 µM) was 0.787, the relative viability ([2]; first compound 0.2 µM) was 1.22 and the relative viability ([2]; first compound 0.6325 µM) was 0.818. For the same cell line, the relative viability ([2]; first compound 2 µM) was 1.05, the relative viability ([2]; first compound 6.325 µM) was 0.622 and the relative viability ([2]; first compound 20 µM) was 0.983. The relative viability (TPCA-1 + Luminespib; first compound 0.04 µM) was 1.03, the relative viability (TPCA-1 + Luminespib; first compound 0.1265 µM) was 0.99 and the relative viability (TPCA-1 + Luminespib; first compound 0.4 µM) was 1.08. The relative viability (TPCA-1 + Luminespib; first compound 1.265 µM) was 1.04 and the relative viability (TPCA-1 + Luminespib; first compound 4 µM) was 1.05.
Work on EPLC-272H yielded a relative viability ([1]; first compound 0.2 µM) of 0.289, a relative viability ([1]; first compound 0.6325 µM) of 0.318 and a relative viability ([1]; first compound 2 µM) of 0.298. For the same cell line, the relative viability ([1]; first compound 6.325 µM) was 0.238, the relative viability ([1]; first compound 20 µM) was 0.276 and the relative viability (TPCA-1 + Trametinib; first compound 0.04 µM) was 0.324. It also gave a relative viability (TPCA-1 + Trametinib; first compound 0.1265 µM) of 0.22, a relative viability (TPCA-1 + Trametinib; first compound 0.4 µM) of 0.329 and a relative viability (TPCA-1 + Trametinib; first compound 1.265 µM) of 0.332. The relative viability (TPCA-1 + Trametinib; first compound 4 µM) was 0.265, the relative viability ([2]; first compound 0.2 µM) was 1.28 and the relative viability ([2]; first compound 0.6325 µM) was 0.965. The relative viability ([2]; first compound 2 µM) was 1.15, the relative viability ([2]; first compound 6.325 µM) was 1.09 and the relative viability ([2]; first compound 20 µM) was 0.95. For the same cell line, the relative viability (TPCA-1 + Luminespib; first compound 0.04 µM) was 0.265, the relative viability (TPCA-1 + Luminespib; first compound 0.1265 µM) was 0.262 and the relative viability (TPCA-1 + Luminespib; first compound 0.4 µM) was 0.443. For the same cell line, the relative viability (TPCA-1 + Luminespib; first compound 1.265 µM) was 0.38 and the relative viability (TPCA-1 + Luminespib; first compound 4 µM) was 0.207.
ChaGo-K-1 showed a relative viability ([1]; first compound 0.2 µM) of 0.517, a relative viability ([1]; first compound 0.6325 µM) of 0.493 and a relative viability ([1]; first compound 2 µM) of 0.459. It also gave a relative viability ([1]; first compound 6.325 µM) of 0.3, a relative viability ([1]; first compound 20 µM) of 0.271 and a relative viability (TPCA-1 + Trametinib; first compound 0.04 µM) of 0.895. For the same cell line, the relative viability (TPCA-1 + Trametinib; first compound 0.1265 µM) was 0.715, the relative viability (TPCA-1 + Trametinib; first compound 0.4 µM) was 0.876 and the relative viability (TPCA-1 + Trametinib; first compound 1.265 µM) was 0.822. The relative viability (TPCA-1 + Trametinib; first compound 4 µM) was 0.676, the relative viability ([2]; first compound 0.2 µM) was 1.01 and the relative viability ([2]; first compound 0.6325 µM) was 0.964. It also gave a relative viability ([2]; first compound 2 µM) of 1.11, a relative viability ([2]; first compound 6.325 µM) of 0.698 and a relative viability ([2]; first compound 20 µM) of 0.727. For the same cell line, the relative viability (TPCA-1 + Luminespib; first compound 0.04 µM) was 0.766, the relative viability (TPCA-1 + Luminespib; first compound 0.1265 µM) was 0.689 and the relative viability (TPCA-1 + Luminespib; first compound 0.4 µM) was 0.698. The relative viability (TPCA-1 + Luminespib; first compound 1.265 µM) was 0.453 and the relative viability (TPCA-1 + Luminespib; first compound 4 µM) was 0.302.
NCI-H1651 gave a relative viability ([1]; first compound 0.2 µM) of 0.352, a relative viability ([1]; first compound 0.6325 µM) of 0.372 and a relative viability ([1]; first compound 2 µM) of 0.446. It also gave a relative viability ([1]; first compound 6.325 µM) of 0.26, a relative viability ([1]; first compound 20 µM) of 0.323 and a relative viability (TPCA-1 + Trametinib; first compound 0.04 µM) of 0.894. The relative viability (TPCA-1 + Trametinib; first compound 0.1265 µM) was 0.799, the relative viability (TPCA-1 + Trametinib; first compound 0.4 µM) was 0.838 and the relative viability (TPCA-1 + Trametinib; first compound 1.265 µM) was 0.824. It also gave a relative viability (TPCA-1 + Trametinib; first compound 4 µM) of 0.787, a relative viability ([2]; first compound 0.2 µM) of 1.25 and a relative viability ([2]; first compound 0.6325 µM) of 1.01. The relative viability ([2]; first compound 2 µM) was 1.07, the relative viability ([2]; first compound 20 µM) was 1.11 and the relative viability (TPCA-1 + Luminespib; first compound 0.04 µM) was 0.839. The relative viability (TPCA-1 + Luminespib; first compound 0.1265 µM) was 0.979, the relative viability (TPCA-1 + Luminespib; first compound 0.4 µM) was 0.835 and the relative viability (TPCA-1 + Luminespib; first compound 1.265 µM) was 0.915. For the same cell line, the relative viability (TPCA-1 + Luminespib; first compound 4 µM) was 1.
